According to US10633383B2, “Compounds for the treatment, alleviation or prevention of disorders associated with Tau aggregates” (AC Immune SA, priority 2018, dated 2020):

Key:
[1] = biological target: T1, recombinant full-length (fl)Tau (human Tau 2N4R) aggregates (Homo sapiens, UniProt P10636); test: Full-length Tau (flTau) disaggregation assay by Thioflavin T (ThT); type: biochemical; conditions: 2 μM flTau aggregates, 30 minutes at RT, ThT fluorescence
T1 construct: 35 μM of recombinant full-length (fl)Tau in PBS were aggregated; made in house; host or cells: bacteria
Protocol: Full-Length Tau (flTau) Disaggregation Assay by Thioflavin T (ThT)
(§1) The longest isoform of human Tau (2N4R; 441 amino acids) was expressed in bacteria and purified. For the Tau disaggregation assay by ThT, 35 μM of recombinant full-length (fl)Tau in PBS were aggregated for 24 hours at 37° C. in presence of 50 μM of heparin (Sigma-Aldrich) and 10 mM of DTT (Sigma-Aldrich) under shaking at 750 RPM. Compounds were dissolved in anhydrous dimethyl sulfoxide (DMSO, Sigma-Aldrich) to reach a concentration of 10 mM. flTau aggregates and serial dilutions of compounds were mixed together in PBS (volume 50 μL) to a final concentration of 2 μM of flTau aggregates and from 160 to 0.04 μM of compounds. The mixture was incubated for 30 minutes at room temperature (RT), then 40 μL of this mixture were transferred into a black 384-well plate assay (Perkin-Elmer) and mixed with 10 μL of 100 μM ThT in 250 mM glycine (both from Sigma-Aldrich) in PBS. Fluorescence (relative fluorescence units; RFU) was measured in monoplicate or duplicate on a Tecan reader (excitation: 440 nm; emission: 485 nm). Percentage of flTau disaggregation was then calculated and the half maximal effective concentration (EC50) was determined using GraphPad Prism version 5 (GraphPad Software) assuming a one-binding site fitting model.

[2] = biological target: T2, Tau K18 fragment (amino acids 244 to 372 of human Tau441) aggregates (Homo sapiens, UniProt P10636); test: Tau K18 disaggregation assay by ThT; type: biochemical; conditions: 2 μM K18 aggregates, 30 minutes at RT, ThT fluorescence
T2 construct: encompassing amino acids 244 to 372 of the longest isoform (2N4R) of human Tau441; host or cells: bacteria
Protocol: Tau K18 Disaggregation Assay by ThT
as §1, with “Compounds” for “The longest isoform of human Tau (2N4R; 441 amino acids) was expressed in bacteria and purified. For the Tau disaggregation assay by ThT, 35 μM of recombinant full-length (fl)Tau in PBS were aggregated for 24 hours at 37° C. in presence of 50 μM of heparin (Sigma-Aldrich) and 10 mM of DTT (Sigma-Aldrich) under shaking at 750 RPM. Compounds”, “K18” for “flTau”, “and” for “and the”

T1 sequence (P10636 1-441 isoform P10636-8): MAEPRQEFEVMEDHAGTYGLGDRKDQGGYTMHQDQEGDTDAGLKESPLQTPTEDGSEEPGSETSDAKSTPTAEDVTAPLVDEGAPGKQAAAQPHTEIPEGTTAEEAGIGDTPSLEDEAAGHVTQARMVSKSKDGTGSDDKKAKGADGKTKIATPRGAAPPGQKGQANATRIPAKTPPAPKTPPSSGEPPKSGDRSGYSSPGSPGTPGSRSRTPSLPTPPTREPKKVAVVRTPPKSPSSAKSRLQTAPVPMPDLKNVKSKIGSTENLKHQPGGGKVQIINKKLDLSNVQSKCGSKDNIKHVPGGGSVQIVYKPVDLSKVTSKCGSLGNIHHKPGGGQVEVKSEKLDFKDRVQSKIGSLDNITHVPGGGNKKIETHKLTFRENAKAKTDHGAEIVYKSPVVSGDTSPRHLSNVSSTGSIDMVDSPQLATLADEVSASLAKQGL
T2 sequence (P10636 561-689): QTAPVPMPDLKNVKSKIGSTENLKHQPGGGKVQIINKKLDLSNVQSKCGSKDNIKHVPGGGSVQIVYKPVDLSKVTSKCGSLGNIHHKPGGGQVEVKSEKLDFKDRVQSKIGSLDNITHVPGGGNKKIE

Row | EC50 [1] [µM] | EC50 [2] [µM] | SMILES
1 |  | < 10 | COc1cccc2c3c([nH]c12)CCN(c1ccc2oc(N4CCOCC4)nc2c1)C3 [Example 127]
2 |  | < 10 | C[C@H]1CN(c2nc3cc(N4CCc5[nH]c6cc(F)ccc6c5C4)ccc3o2)CCO1 [Example 128]
3 |  | < 10 | C[C@H]1COCCN1c1nc2cc(N3CCc4[nH]c5cc(F)ccc5c4C3)ccc2o1 [Example 129]
4 |  | < 10 | C[C@@H]1CN(c2nc3cc(N4CCc5[nH]c6cc(F)ccc6c5C4)ccc3o2)CCO1 [Example 130]
5 |  | < 10 | COc1cc(N2CCc3[nH]c4cc(F)ccc4c3C2)ccn1 [Example 132]
6 |  | < 10 | COc1ccc2c3c([nH]c2c1)CCN(c1ccc2oc(N4CCOCC4)nc2c1)C3 [Example 133]
7 |  | 10 to 25 | CCOc1ccc2[nH]c3c(c2c1)CN(c1ccc2oc(N4CCOCC4)nc2c1)CC3 [Example 136]
8 |  | < 10 | Cc1cccc2c3c([nH]c12)CCN(c1ccc2oc(N4CCOCC4)nc2c1)C3 [Example 137]
9 |  | < 10 | COc1cccc(N2CCc3[nH]c4cc(F)ccc4c3C2)n1 [Example 138]
10 |  | 10 to 25 | CC(C)Oc1cc(N2CCc3[nH]c4cc(F)ccc4c3C2)ccn1 [Example 139]
11 |  | < 10 | COc1ccnc(N2CCc3[nH]c4cc(F)ccc4c3C2)c1 [Example 140]
12 |  | 10 to 25 | COc1ccc(N2CCc3[nH]c4cc(F)ccc4c3C2)nc1 [Example 141]
13 |  | < 10 | C[C@@H]1CN(c2nc3cc(N4CCc5[nH]c6cc(F)ccc6c5C4)ccc3o2)C[C@H](C)O1 [Example 142]
14 |  | < 10 | CC(C)(C)Nc1nc2cc(N3CCc4[nH]c5cc(F)ccc5c4C3)ccc2o1 [Example 143]
15 |  | < 10 | Cn1c2c(c3ccccc31)CN(c1ccc3oc(N4CCOCC4)nc3c1)CC2 [Example 144]
16 |  | < 10 | CN1CCN(c2nc3cc(N4CCc5[nH]c6cc(F)ccc6c5C4)ccc3o2)CC1 [Example 145]
17 |  | < 10 | CCn1c2c(c3ccc(F)cc31)CN(c1ccc3oc(N4CCOCC4)nc3c1)CC2 [Example 146, 5-(5-ethyl-7-fluoro-3,4-dihydro-1H-pyrido[4,3-b]indol-2-yl)-2-morpholino-1,3-benzoxazole]
18 |  | < 10 | Cc1ccc(N2CCc3c(c4cc(F)ccc4n3C)C2)cc1O [Example 147]
19 |  | < 10 | COc1ccc(N2CCc3c(c4cc(F)ccc4n3C)C2)cc1 [Example 148]
20 |  | < 10 | Cn1c2c(c3cc(F)ccc31)CN(c1ccc(OCCO)cc1)CC2 [Example 149]
21 |  | < 10 | Cn1c2c(c3cc(F)ccc31)CN(c1ccc3cc(O)ccc3n1)CC2 [Example 150]
22 |  | < 10 | COc1cc(N2CCc3c(c4cc(F)ccc4n3C)C2)ccc1O [Example 151]
23 |  | < 10 | COc1cc(N2CCc3[nH]c4cc(F)ccc4c3C2)ccc1F [Example 152]

Further lines, the molecule ahead of its results:

Row | SMILES | EC50 [1] [µM] | EC50 [2] [µM]
24 | COc1ccc2c(c1)c1c(n2C)CCN(c2ccc3nc(N4CCOCC4)sc3c2)C1 [Example 16] | < 10 | 
25 | Cn1c2c(c3cc(F)cnc31)CN(c1ccc3nc(N4CCOCC4)sc3c1)CC2 [Example 17] | < 10 | 
26 | COc1ccc2[nH]c3c(c2c1)CN(c1ccc2nc(N4CCOCC4)oc2c1)CC3 [Example 18] | 10 to 25 | 
27 | COc1ccc2c(c1)c1c(n2C)CCN(c2ccc3oc(N4CCOCC4)nc3c2)C1 [Example 21] | 10 to 25 | 
28 | Cn1c2c(c3cc(F)ccc31)CN(c1ccc3sc(N4CCOCC4)nc3c1)CC2 [Example 22] | 25 to 50 | 
29 | COc1ccc2[nH]c3c(c2c1)CN(c1ccc2sc(N4CCOCC4)nc2c1)CC3 [Example 23] | 25 to 50 | 
30 | CC(C)Nc1nc2cc(N3CCc4c(c5cc(F)ccc5n4C)C3)ccc2s1 [Example 25] | < 10 | 
31 | CN(C)c1nc2cc(N3CCc4c(c5cc(F)ccc5n4C)C3)ccc2s1 [Example 28] | < 10 | 
32 | CN(C)c1nc2cc(N3CCc4c(c5cc(F)ccc5n4C)C3)ccc2o1 [Example 29] | < 10 | 
33 | COc1ccc2[nH]c3c(c2c1)CN(c1ccc2sc(N(C)C)nc2c1)CC3 [Example 30] | < 10 | 
34 | COc1ccc2c(c1)c1c(n2C)CCN(c2ccc3nc(N(C)C)sc3c2)C1 [Example 31] | < 10 | 
35 | COc1ccc2c(c1)c1c(n2C)CCN(c2ccc3sc(N(C)C)nc3c2)C1 [Example 32] | 25 to 50 | 
36 | COc1ccc2c(c1)c1c(n2C)CCN(c2ccc3nc(N(C)C)oc3c2)C1 [Example 33] | < 10 | 
37 | Cn1c2c(c3cc(F)ccc31)CN(c1ccc(F)cn1)CC2 [Example 96e] |  | 25 to 50
38 | Fc1ccc2[nH]c3c(c2c1)CN(c1ccc(N2CCOCC2)nn1)CC3 [Example 97] |  | < 10
39 | CNc1nc2ccc(N3CCc4[nH]c5ccc(F)cc5c4C3)cc2o1 [Example 98] |  | < 10
40 | Fc1ccc2[nH]c3c(c2c1)CN(c1ccnc(N2CCOCC2)n1)CC3 [Example 99] |  | 25 to 50
41 | Fc1ccc2[nH]c3c(c2c1)CN(c1cnc(N2CCOCC2)cn1)CC3 [Example 100] |  | 25 to 50
42 | Fc1ccc2c3c([nH]c2c1)CCN(c1ccc(N2CCOCC2)nn1)C3 [Example 101] |  | < 10
43 | Fc1ccc2c3c([nH]c2c1)CCN(c1ccc(N2CC4CCC(C2)O4)nn1)C3 [Example 102] |  | 25 to 50
44 | Fc1ccc2c3c([nH]c2c1)CCN(c1cnc(N2CCOCC2)cn1)C3 [Example 103] |  | < 10
45 | Fc1ccc2[nH]c3c(c2c1)CN(c1ncc2nc(N4CCOCC4)sc2n1)CC3 [Example 104] |  | < 10
46 | Fc1ccc2[nH]c3c(c2c1)CN(c1cnc(N2C4CCC2COC4)cn1)CC3 [Example 105] |  | < 10
47 | Fc1ccc2[nH]c3c(c2c1)CN(c1ccc2nc(N4CCOCC4)ccc2n1)CC3 [Example 105a] |  | < 10

Row | SMILES | EC50 [1] [µM] | EC50 [2] [µM]
48 | Fc1ccc2c3c([nH]c2c1)CCN(c1ccc2nc(N4CCOCC4)ccc2n1)C3 [Example 105b] |  | < 10
49 | Fc1ccc2c3c([nH]c2c1)CCN(c1ncc2nc(N4CCOCC4)sc2n1)C3 [Example 105f] |  | < 10
50 | Fc1ccc2c3c([nH]c2c1)CCN(c1nc2cc(N4CCOCC4)ccc2o1)C3 [Example 106] |  | < 10
51 | Fc1ccc2c3c([nH]c2c1)CCN(c1nc2cc(N4CCOCC4)ccc2s1)C3 [Example 107] |  | < 10
52 | Fc1ccc2c3c([nH]c2c1)CCN(c1nc2ccc(N4CCOCC4)cc2s1)C3 [Example 108] |  | < 10
53 | Fc1ccc2c3c([nH]c2c1)CCN(c1nc2ccc(N4CCOCC4)cc2o1)C3 [Example 109] |  | < 10
54 | Fc1ccc2c3c([nH]c2c1)CCN(c1cc2ccc(N4CCOCC4)nc2cn1)C3 [Example 110] |  | < 10
55 | Fc1cccc2c3c([nH]c12)CCN(c1ccc2oc(N4CCOCC4)nc2c1)C3 [Example 111] |  | < 10
56 | Fc1ccc2[nH]c3c(c2c1)CN(c1cnc2nc(N4CCOCC4)ccc2c1)CC3 [Example 112] |  | < 10
57 | Fc1ccc2[nH]c3c(c2c1)CN(c1ccc2nc(N4CCOCC4)ccc2c1)CC3 [Example 113] |  | < 10
58 | Fc1ccc2[nH]c3c(c2c1)CN(c1ccc2ccc(N4CCOCC4)nc2c1)CC3 [Example 114] |  | 10 to 25
59 | Fc1ccc2[nH]c3c(c2c1)CN(c1ccc(N2CCOCC2)cc1)CC3 [Example 115] |  | < 10
60 | COCCN(C)c1nc2cc(N3CCc4[nH]c5cc(F)ccc5c4C3)ccc2o1 [Example 116] |  | < 10
61 | Fc1ccc2c3c([nH]c2c1)CCN(c1ccc(N2CCOCC2)cc1)C3 [Example 117] |  | < 10
62 | COCCNc1nc2cc(N3CCc4[nH]c5cc(F)ccc5c4C3)ccc2o1 [Example 118] |  | 10 to 25
63 | Cn1c2c(c3ccccc31)CN(c1ccc(N3CCOCC3)nc1)CC2 [Example 119] |  | < 10
64 | Cn1c2c(c3cccc(F)c31)CN(c1ccc3oc(N4CCOCC4)nc3c1)CC2 [Example 120] |  | < 10
65 | N#Cc1ccc(N2CCc3[nH]c4cc(F)ccc4c3C2)nc1 [Example 121] |  | < 10
66 | Fc1ccc2c3c([nH]c2c1)CCN(c1ccc2cc(N4CCOCC4)ncc2c1)C3 [Example 122] |  | < 10
67 | N#Cc1ccc(N2CCc3[nH]c4cc(F)ccc4c3C2)cn1 [Example 123] |  | < 10
68 | Fc1ccc2[nH]c3c(c2c1)CN(c1cccc2oc(N4CCOCC4)nc12)CC3 [Example 124] |  | < 10
69 | Fc1ccc2c3c([nH]c2c1)CCN(c1ccc2oc(N4CCOC5(CCC5)C4)nc2c1)C3 [Example 125] |  | < 10
70 | C[C@@H]1COCCN1c1nc2cc(N3CCc4[nH]c5cc(F)ccc5c4C3)ccc2o1 [Example 126] |  | < 10
